Tested on: gluten intolerance
Experiment: treating/preventing gluten intolerance with oral loperamide (experience of the inventor)
Type: in vivo, patient
Conditions: dosage titrated, as long as it is the type of gluten intolerance that responds to loperamide and the proper daily dosage is adhered to
Description: The present invention may include a new use of the existing OTC medication (generic: loperamide, brand: Immodium™) to be taken orally by patient suffering from gluten allergy/intolerance symptoms. The Loperamide is taken until the gluten allergy/intolerance symptoms are relieved.
The amount of loperamide needed to treat/prevent the symptoms of gluten intolerance can be quite a bit higher than the levels that can cause constipation. In that case, a slow increase in dosage may be necessary in order to create a resistance to the constipatory effects. Titration may be necessary to reach the proper dosage to eliminate the symptoms, starting preferably with the standard lowest dosage of loperamide recommended to treat diarrhea (2 mg tablet after the first loose stool, 1 tablet after each subsequent loose stool) and adding 1×2 mg tablet every 6 hours until stool consistency normalizes, at which point the symptoms of gluten intolerance will disappear completely, if it is the type of gluten intolerance that is treatable with loperamide. In the experience of the inventor, the rate of successfully treating/preventing gluten intolerance completely is 100%, as long as it is the type of gluten intolerance that responds to loperamide, and the proper daily dosage is adhered to once it is determined to be effective for the patient.

SMILES: CN(C)C(=O)C(CCN1CCC(O)(c2ccc(Cl)cc2)CC1)(c1ccccc1)c1ccccc1 [loperamide]
- rate of successfully treating/preventing gluten intolerance completely: 100%

— patent publication US20200246322A1, “METHOD FOR TREATING GLUTEN-RELATED ALLERGIES AND I[…] WITH LOPERAMIDE” (priority 2019, published 2020)
